# US20230167073A1 (Teijin Pharma Limited, priority 2020, published 2023)
# Target: T1, Human TRPC6 (Homo sapiens, UniProt Q9Y210)
# T1 construct: expressed in transfected cells
# T1 sequence (Q9Y210 1-931): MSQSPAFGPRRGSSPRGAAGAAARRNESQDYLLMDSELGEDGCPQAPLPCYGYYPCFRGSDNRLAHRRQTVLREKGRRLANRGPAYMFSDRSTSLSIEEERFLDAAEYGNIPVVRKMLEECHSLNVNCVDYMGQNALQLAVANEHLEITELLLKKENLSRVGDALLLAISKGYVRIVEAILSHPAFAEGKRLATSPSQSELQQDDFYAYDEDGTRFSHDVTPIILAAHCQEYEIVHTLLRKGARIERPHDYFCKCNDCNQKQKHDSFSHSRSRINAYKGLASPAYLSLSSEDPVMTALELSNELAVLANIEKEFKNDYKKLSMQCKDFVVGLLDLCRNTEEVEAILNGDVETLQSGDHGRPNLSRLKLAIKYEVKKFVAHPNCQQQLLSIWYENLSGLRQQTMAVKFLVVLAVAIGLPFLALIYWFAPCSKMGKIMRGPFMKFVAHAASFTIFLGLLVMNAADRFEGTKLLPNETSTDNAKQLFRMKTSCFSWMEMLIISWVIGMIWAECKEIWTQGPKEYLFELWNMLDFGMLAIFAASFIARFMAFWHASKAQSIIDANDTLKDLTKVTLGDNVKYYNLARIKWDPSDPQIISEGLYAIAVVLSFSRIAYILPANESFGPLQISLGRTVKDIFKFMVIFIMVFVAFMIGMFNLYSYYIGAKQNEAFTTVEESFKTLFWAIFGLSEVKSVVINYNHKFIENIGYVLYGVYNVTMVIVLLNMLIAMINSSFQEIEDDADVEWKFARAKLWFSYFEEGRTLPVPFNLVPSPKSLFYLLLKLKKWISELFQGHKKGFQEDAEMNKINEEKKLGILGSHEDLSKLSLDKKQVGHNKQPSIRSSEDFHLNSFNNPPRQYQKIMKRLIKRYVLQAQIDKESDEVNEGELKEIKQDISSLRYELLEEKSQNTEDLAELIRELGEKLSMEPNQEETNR
# Experiment: Evaluation of TRPC6 channel inhibitory activity (1), FLIPR Calcium 5 Assay Kit, OAG stimulation (Compound Nos. 1-1293)
# Assay type: cell-based
# Conditions: Human TRPC6 stably-expressing cells, OAG 30 μM, FLIPR Calcium 5 Assay Kit; read-out: Inhibitory activity (pIC50 class) (converted)
# In short: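 Calcium influx read by FLIPR fluorescence in cells stably expressing human TRPC6, dye-loaded 30 min. Compounds preincubated 20 min, then OAG stimulation at 30 μM final. Inhibition fitted by four-parameter logistic regression to give pIC50, reported as +/++/+++ categories.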
row,Compound,IC50 [nM]
1,"Cc1nc(Oc2cc(C#N)ccc2-n2cc3c(n2)CCC(N)C3O)cc(-c2ccccc2)n1 (stereo not shown) [Compound 193, 4-(5-amino-4-hydroxy-4,5,6,7-tetrahydroindazol-2-yl)-3-(2-methyl-6-phenylpyrimidin-4-yl)oxybenzonitrile]",> 1000
2,"Cc1nc(Oc2cc(C#N)ccc2-c2nc(C(O)CN(C)C)c(C)n2C)cc(-c2ccccc2)n1 (stereo not shown) [Compound 99, 4-[4-[2-(dimethylamino)-1-hydroxyethyl]-1,5-dimethylimidazol-2-yl]-3-(2-methyl-6-phenylpyrimidin-4-yl)oxybenzonitrile]",> 1000
3,"N#Cc1ccc(-c2ncc(CCN)cn2)c(Sc2cnnc(N3CCCC3)c2)c1 [compound 1259, 4-[5-(2-aminoethyl)pyrimidin-2-yl]-3-(6-pyrrolidin-1-ylpyridazin-4-yl)sulfanylbenzonitrile]",< 10
4,"Cc1nn(CC(C)C)cc1Oc1cc(C#N)ccc1-c1ncc(CN)cn1 [compound 802, 4-[5-(aminomethyl)pyrimidin-2-yl]-3-[3-methyl-1-(2-methylpropyl)pyrazol-4-yl]oxybenzonitrile]",< 10
5,"N#Cc1ccc(-c2ccc(CCN)cc2)c(Oc2cc(N3CCOCC3)cnn2)c1 [Compound 145, 4-[4-(2-aminoethyl)phenyl]-3-(5-morpholin-4-ylpyridazin-3-yl)oxybenzonitrile]",10 to 1000
6,"N#Cc1ccc(-n2cc(CCN)cn2)c(Oc2cnnc(N3CCCC3)c2)c1 [Compound 284, 4-[4-(2-Aminoethyl)pyrazol-1-yl]-3-(6-pyrrolidin-1-ylpyridazin-4-yl)oxybenzonitrile]",10 to 1000
7,"CCc1cc(Oc2cc(C#N)ccc2-c2ccc(CN)nc2)n(C)n1 [compound 330, 4-[6-(aminomethyl)pyridin-3-yl]-3-(5-ethyl-2-methylpyrazol-3-yl)oxybenzonitrile]",> 1000
8,"N#Cc1ccc(-c2ncc(CCN)cn2)c(Oc2ccc(N3CCCC3)nc2)c1 [compound 750, 4-[5-(2-aminoethyl)pyrimidin-2-yl]-3-(6-pyrrolidin-1-ylpyridin-3-yl)oxybenzonitrile]",10 to 1000

# Continued, values first:
row,IC50 [nM],Compound
1,< 10,"Cn1nc(C2CC2)cc1Oc1cc(C#N)ccc1-c1ccc([C@H](O)CN)cn1 [compound 375, 4-[5-[(1S)-2-amino-1-hydroxyethyl]pyridin-2-yl]-3-(5-cyclopropyl-2-methylpyrazol-3-yl)oxybenzonitrile]"
2,> 1000,"CC(C)NC(=O)C(N)c1ccc(-c2ccc(C#N)cc2Oc2cc(C3CC3)nn2C)nc1 (stereo not shown) [compound 490, 2-amino-2-[6-[4-cyano-2-(5-cyclopropyl-2-methylpyrazol-3-yl)oxyphenyl]pyridin-3-yl]-N-propan-2-ylacetamide]"
3,> 1000,N#Cc1ccc(-c2ncc(CN)cn2)c(Cn2ccnc2-c2ccccc2)c1 [compound 1183]
4,> 1000,"CCCc1nccn1Cc1cc(C#N)ccc1-c1ccc(CCN)cc1 [compound 1121, 4-[4-(2-aminoethyl)phenyl]-3-[(2-propylimidazol-1-yl)methyl]benzonitrile]"
5,10 to 1000,"Cn1nc(-c2ccccn2)cc1Oc1cc(C#N)ccc1-c1cccn2c(CN)nnc12 [compound 617, 4-[3-(aminomethyl)-[1,2,4]triazolo[4,3-a]pyridin-8-yl]-3-(2-methyl-5-pyridin-2-ylpyrazol-3-yl)oxybenzonitrile]"
6,< 10,"Cc1nc(Oc2cc(C#N)ccc2-c2ncc(CCN)cn2)cc(N2CCCC2)n1 [compound 448, 4-[5-(2-aminoethyl)pyrimidin-2-yl]-3-(2-methyl-6-pyrrolidin-1-ylpyrimidin-4-yl)oxybenzonitrile]"
7,< 10,"Cc1nc(C(F)(F)F)cn1Cc1cc(C#N)ccc1-c1ncc(CCN)cn1 [compound 1173, 4-[5-(2-aminoethyl)pyrimidin-2-yl]-3-[[2-methyl-4-(trifluoromethyl)imidazol-1-yl]methyl]benzonitrile]"
8,10 to 1000,"N#Cc1ccc(-c2ccc(CCN)cc2)c(Oc2cnnc(-c3cccc(F)c3C#N)c2)c1 [Compound 84, 2-[5-[2-[4-(2-aminoethyl)phenyl]-5-cyanophenoxy]pyridazin-3-yl]-6-fluorobenzonitrile]"
